Three compounds from ChEMBL document CHEMBL1156451 (J Biol Chem, 2007) can be followed below.

Converted amounts (≈) assume the structure as drawn. The source made the active and inactive calls. Where a SMILES comes first, the peptide text is derived from it. Some results are limits rather than exact numbers.

The subject of data set [1] is Escherichia coli. Kind of data set: Antibacterial activity against Escherichia coli K12 ATCC 23716 in 10% Luria-Bertani medium/90% Hepes buffer at pH 7.0. It counts as functional.
A further data set relates to Acinetobacter baumannii. Kind of data set: Antibacterial activity against Acinetobacter baumannii ATCC 19606 after 24 hrs in Mueller-Hinton broth medium. To be noted: ATCC 19606, 24 h. It counts as functional.
Data set [2] has as its system HeLa. Kind of data set: Cytotoxicity against human HeLa cells at 100 ug/ml after 24 hrs by MTT assay relative to control. In kind it is functional.
The subject of data set [3] is Escherichia coli. Kind of data set: Antibacterial activity against Escherichia coli K12 ATCC 23716 after 24 hrs in Mueller-Hinton broth medium. In kind it is functional. To be noted: K12, 24 h.
In data set [4] the test system is Bordetella bronchiseptica. Kind of data set: Antibacterial activity against Bordetella bronchiseptica CUN 11844-99 after 24 hrs in Mueller-Hinton broth medium. It counts as functional.
The nature of data set [5]: Toxicity in human erythrocytes assessed as hemolysis at 100 ug/ml. It counts as cell-based, Erythrocyte. The conditions noted are these: read-out: Activity.
The subject of data set [6] is HeLa. Kind of data set: Cytotoxicity against human HeLa cells at 100 ug/ml after 24 hrs by neutral red uptake assay relative to control. It counts as functional.
The subject of data set [7] is Brucella abortus. Kind of data set: Antibacterial activity against Brucella abortus 9.19 (per-) after 24 hrs in Mueller-Hinton broth medium. In kind it is functional.
The subject of another data set is Staphylococcus aureus. Nature of the data set: Antibacterial activity against methicillin-resistant Staphylococcus aureus ATCC 43300 after 24 hrs in Mueller-Hinton broth medium. To be noted: ATCC 43300, 24 h. It counts as functional.
The test system of a further data set is Pseudomonas aeruginosa. Nature of the data set: Antibacterial activity against Pseudomonas aeruginosa CUN 4158-02 after 24 hrs in Mueller-Hinton broth medium. It counts as functional.
The test system of data set [8] is Escherichia coli. Kind of data set: Antibacterial activity against Escherichia coli ATCC 25922 after 24 hrs in Mueller-Hinton broth medium. In kind it is functional. The conditions noted are these: ATCC 25922, 24 h.
For data set [9], the system named is Brucella abortus. Nature of the data set: Antibacterial activity against Brucella abortus 9.49 (per-) after 48 hrs in Mueller-Hinton broth medium. In kind it is functional.
A short description of data set [10]: Toxicity in human erythrocytes assessed as hemolysis. It counts as cell-based. The conditions noted are these: erythrocyte.
Data set [11] relates to Escherichia coli. Kind of data set: Effect on morphology in Escherichia coli K12 ATCC 23716 assessed as detachment of outer membrane from inner membrane at 4 uM after 30 mins by transmission electron microscopy. In kind it is functional, organism-based.
Data set [12] concerns Escherichia coli. Kind of data set: Effect on morphology in Escherichia coli K12 ATCC 23716 assessed as formation of high electrodense clusters at 20 uM after 30 mins by transmission electron microscopy. It counts as functional, organism-based.

As for `CC[C@H](C)[C@H](NC(=O)[C@H](CCCCN)NC(=O)[C@H](CCCCN)NC(=O)[C@H](CO)NC(=O)[C@@H](NC(=O)[C@@H](N)CCCCN)[C@@H](C)CC)C(=O)N[C@@H](CCSC)C(=O)N[C@@H](CCCNC(=N)N)C(=O)N[C@H](C(=O)N[C@@H](Cc1ccccc1)C(=O)N[C@@H](CC(C)C)C(=O)N[C@@H](CCCNC(=N)N)C(=O)N[C@@H](CCCNC(=N)N)C(N)=O)[C@@H](C)O` (H-KISKKIMRTFLRR-NH2), the MBC (commonly the smallest concentration meeting the test's criterion for killing) is 12.5 µg/mL (≈ 7.46 µM) against Escherichia coli [1]; 256 µg/mL (≈ 153 µM) with Acinetobacter baumannii; 16 µg/mL (≈ 9.55 µM) in the data set with Escherichia coli [3]; 32 µg/mL (≈ 19.1 µM) in data set [4]; more than 256 µg/mL in the data set with Brucella abortus [7]; more than 256 µg/mL in the data set on Staphylococcus aureus. Besides, the minimum bactericidal concentration (MBC) was 256 µg/mL (≈ 153 µM) against Pseudomonas aeruginosa and 128 µg/mL (≈ 76.4 µM) against Escherichia coli [8]. Also, the MIC (as a rule, the lowest concentration found to suppress growth) is 12.5 µg/mL (≈ 7.46 µM) against Escherichia coli [1]; 256 µg/mL (≈ 153 µM) in the data set with Acinetobacter baumannii; 16 µg/mL (≈ 9.55 µM) in the data set on Escherichia coli [3]; 16 µg/mL (≈ 9.55 µM) in data set [4]; more than 256 µg/mL with Staphylococcus aureus; 256 µg/mL (≈ 153 µM) in the data set on Pseudomonas aeruginosa. For the same compound, the MIC was 64 µg/mL (≈ 38.2 µM) in the data set on Escherichia coli [8] and 16 µg/mL (≈ 9.55 µM) with Brucella abortus [9]. For the same compound, the Activity in the data set on HeLa [2] came to 6.4%; in the data set with HeLa [6] it was 18.5%. The hemolysis at 100 ug/ml in data set [5] is less than 5%.

In the case of `CC[C@H](C)[C@H](NC(=O)[C@H](CCCNC(=N)N)NC(=O)[C@H](CCCNC(=N)N)NC(=O)[C@H](CC(C)C)NC(=O)[C@H](Cc1ccccc1)NC(=O)[C@@H](NC(=O)[C@H](CCCNC(=N)N)NC(=O)[C@H](CCSC)NC(=O)[C@@H](NC(=O)[C@H](CCCCN)NC(=O)[C@H](CCCCN)NC(=O)[C@H](CS)NC(=O)[C@@H](NC(=O)CNC(=O)[C@H](CCCNC(=N)N)NC(=O)[C@H](CC(C)C)NC(=O)[C@@H](NC(=O)[C@@H](N)CCCCN)[C@@H](C)CC)C(C)C)[C@@H](C)CC)[C@@H](C)O)C(=O)N[C@@H](CO)C(=O)N[C@@H](CCCCN)C(=O)N[C@@H](CC(=O)O)C(=O)N[C@H](C(=O)N[C@@H](CC(C)C)C(=O)N[C@H](C(=O)NCC(=O)N[C@@H](CCCCN)C(=O)N[C@@H](CCCCN)C(=O)O)[C@@H](C)O)[C@@H](C)CC` (H-KILRGVCKKIMRTFLRRISKDILTGKK-OH), the MBC came out at 32 µg/mL (≈ 9.99 µM) in the data set on Escherichia coli [1]; 2 µg/mL (≈ 0.624 µM) in the data set with Acinetobacter baumannii; 0.25 µg/mL (≈ 0.078 µM) in the data set with Escherichia coli [3]; 4 µg/mL (≈ 1.25 µM) in data set [4]; 32 µg/mL (≈ 9.99 µM) against Brucella abortus [7]; 256 µg/mL (≈ 79.9 µM) against Staphylococcus aureus. The MBC against Pseudomonas aeruginosa came to 32 µg/mL (≈ 9.99 µM); in the data set on Escherichia coli [8], 16 µg/mL (≈ 5 µM). In addition, the MIC against Escherichia coli [1] is 16 µg/mL (≈ 5 µM); against Acinetobacter baumannii, 2 µg/mL (≈ 0.624 µM); in the data set on Escherichia coli [3] it was 0.25 µg/mL (≈ 0.078 µM); in [4], 4 µg/mL (≈ 1.25 µM); in the data set on Staphylococcus aureus it was 256 µg/mL (≈ 79.9 µM); against Pseudomonas aeruginosa, 32 µg/mL (≈ 9.99 µM). Further, the figures for the minimal inhibitory concentration (MIC) in the data set on Escherichia coli [8] and against Brucella abortus [9] were 16 µg/mL (≈ 5 µM) and 32 µg/mL (≈ 9.99 µM), respectively. Moreover, the results for the Activity entry (in data set [10]; in the data set on HeLa [2]; in the data set on HeLa [6]) were “Toxic”, 28.7% and 31.6%, respectively. In addition, the result with Escherichia coli [11] and in the data set with Escherichia coli [12] was Active.

Take `CC[C@H](C)[C@H](NC(=O)[C@H](CCCNC(=N)N)NC(=O)[C@H](CCCNC(=N)N)NC(=O)[C@H](CC(C)C)NC(=O)[C@H](Cc1ccccc1)NC(=O)[C@@H](NC(=O)[C@H](CCCNC(=N)N)NC(=O)[C@H](CCSC)NC(=O)[C@@H](NC(=O)[C@H](CCCCN)NC(=O)[C@H](CCCCN)NC(=O)[C@H](CO)NC(=O)[C@@H](NC(=O)CNC(=O)[C@H](CCCNC(=N)N)NC(=O)[C@H](CC(C)C)NC(=O)[C@@H](NC(=O)[C@@H](N)CCCCN)[C@@H](C)CC)C(C)C)[C@@H](C)CC)[C@@H](C)O)C(=O)N[C@@H](CO)C(=O)N[C@@H](CCCCN)C(=O)N[C@@H](CC(=O)O)C(=O)N[C@H](C(=O)N[C@@H](CC(C)C)C(=O)N[C@H](C(=O)NCC(=O)N[C@@H](CCCCN)C(=O)N[C@@H](CCCCN)C(=O)O)[C@@H](C)O)[C@@H](C)CC` (H-KILRGVSKKIMRTFLRRISKDILTGKK-OH): in the data set on Escherichia coli [1], the MBC worked out at 8 µg/mL (≈ 2.51 µM) and the MIC was found to be 8 µg/mL (≈ 2.51 µM). Further, in the data set on HeLa [2], the Activity is 6.5%. In addition, the hemolysis at 100 ug/ml in data set [5] was less than 5%. Also, in the data set on HeLa [6], the Activity amounted to 6.9%.
